Measured values as given in ChEMBL document CHEMBL1140860, “Synthesis and evaluation of dihydroartemisinin and dihydroartemisitene acetal dimers showing anticancer and antiprotozoal activity” (Bioorg Med Chem, 2009).

Legend:
SK-OV-3 = assay: Growth inhibition of human SKOV3 cells after 48 hrs by sulforhodamine B assay; format: functional; conditions: SK-OV-3, 48 h
EKVX = assay: Growth inhibition of human EKVX cells after 48 hrs by sulforhodamine B assay; format: functional
[1] = Growth inhibition of human Hs 578T cells after 48 hrs by sulforhodamine B assay; format: functional
OVCAR-8 = assay: Growth inhibition of human OVCAR8 cells after 48 hrs by sulforhodamine B assay; format: functional; conditions: OVCAR-8, 48 h
HOP-62 = assay: Growth inhibition of human HOP62 cells after 48 hrs by sulforhodamine B assay; format: functional; conditions: HOP-62, 48 h
SK-MEL-5 = assay: Growth inhibition of human SK-MEL-5 cells after 48 hrs by sulforhodamine B assay; format: functional; conditions: SK-MEL-5, 48 h
DU-145 = assay: Growth inhibition of human DU145 cells after 48 hrs by sulforhodamine B assay; format: functional; conditions: DU-145, 48 h
OVCAR-4 = assay: Growth inhibition of human OVCAR4 cells after 48 hrs by sulforhodamine B assay; format: functional; conditions: OVCAR-4, 48 h
UACC-62 = assay: Growth inhibition of human UACC62 cells after 48 hrs by sulforhodamine B assay; format: functional; conditions: UACC-62, 48 h
SN12C = assay: Growth inhibition of human SN12C cells after 48 hrs by sulforhodamine B assay; format: functional
Plasmodium falciparum [2] = assay: Antimalarial activity after 72 hrs against chloroquine-resistant Plasmodium falciparum W2 infected erythrocytes by LDH assay; format: functional, organism-based; conditions: W2, 72 h
SW-620 = assay: Growth inhibition of human SW620 cells after 48 hrs by sulforhodamine B assay; format: functional; conditions: SW-620, 48 h
HL-60 = assay: Growth inhibition of human HL-60(TB) cells after 48 hrs by sulforhodamine B assay; format: functional; conditions: HL-60, 48 h
NCI-H522 = assay: Growth inhibition of human NCI-H522 cells after 48 hrs by sulforhodamine B assay; format: functional; conditions: NCI-H522, 48 h
A549 = assay: Growth inhibition of human A549 cells after 48 hrs by sulforhodamine B assay; format: functional; conditions: A549, 48 h
SF-539 = assay: Growth inhibition of human SF539 cells after 48 hrs by sulforhodamine B assay; format: functional; conditions: SF-539, 48 h
K562 = assay: Growth inhibition of human K562 cells after 48 hrs by sulforhodamine B assay; format: functional; conditions: K562, 48 h
PC-3 = assay: Growth inhibition of human PC3 cells after 48 hrs by sulforhodamine B assay; format: functional; conditions: PC-3, 48 h
HT-29 = assay: Growth inhibition of human HT-29 cells after 48 hrs by sulforhodamine B assay; format: functional; conditions: HT-29, 48 h
NCI-H23 = assay: Growth inhibition of human NCI-H23 cells after 48 hrs by sulforhodamine B assay; format: functional; conditions: NCI-H23, 48 h
Plasmodium falciparum [3] = assay: Antimalarial activity after 72 hrs against chloroquine-sensitive Plasmodium falciparum D6 infected in erythrocytes by LDH assay; format: functional, organism-based; conditions: D6, 72 h
HOP-92 = assay: Growth inhibition of human HOP92 cells after 48 hrs by sulforhodamine B assay; format: functional; conditions: HOP-92, 48 h
MDA-MB-231 = assay: Growth inhibition of human MDA-MB-231 cells after 48 hrs by sulforhodamine B assay; format: functional; conditions: MDA-MB-231, 48 h
[4] = Cytotoxicity against african green monkey Vero cells after 48 hrs by neutral red assay; format: cell-based; conditions: chlorocebus sabaeus, read-out: TC50
M14 = assay: Growth inhibition of human M14 cells after 48 hrs by sulforhodamine B assay; format: functional; conditions: M14, 48 h
NCI-H322M = assay: Growth inhibition of human NCI-H322M cells after 48 hrs by sulforhodamine B assay; format: functional
HCC 2998 = assay: Growth inhibition of human HCC2998 cells after 48 hrs by sulforhodamine B assay; format: functional; conditions: HCC 2998, 48 h
SK-MEL-2 = assay: Growth inhibition of human SK-MEL-2 cells after 48 hrs by sulforhodamine B assay; format: functional; conditions: SK-MEL-2, 48 h
SF-268 = assay: Growth inhibition of human SF268 cells after 48 hrs by sulforhodamine B assay; format: functional; conditions: SF-268, 48 h
MDA-N = assay: Growth inhibition of human MDA-N cells after 48 hrs by sulforhodamine B assay; format: functional
786-0 = assay: Growth inhibition of human 786-0 cells after 48 hrs by sulforhodamine B assay; format: functional; conditions: 786-0, 48 h
[5] = Selectivity index, ratio of TC50 for african green monkey (Cercopithecus aethiops) Vero cells to IC50 for chloroquine-sensitive Plasmodium falciparum D6; format: toxicity, cell-based
T47D = assay: Growth inhibition of human T47D cells after 48 hrs by sulforhodamine B assay; format: functional
HCT-116 = assay: Growth inhibition of human HCT116 cells after 48 hrs by sulforhodamine B assay; format: functional; conditions: HCT-116, 48 h
NCI/ADR-RES = assay: Growth inhibition of human NCI/ADR-RES cells after 48 hrs by sulforhodamine B assay; format: functional
UO-31 = assay: Growth inhibition of human UO31 cells after 48 hrs by sulforhodamine B assay; format: functional; conditions: UO-31, 48 h
MOLT-4 = assay: Growth inhibition of human MOLT4 cells after 48 hrs by sulforhodamine B assay; format: functional; conditions: MOLT-4, 48 h
SNB-19 = assay: Growth inhibition of human SNB19 cells after 48 hrs by sulforhodamine B assay; format: functional; conditions: SNB-19, 48 h
ACHN = assay: Growth inhibition of human ACHN cells after 48 hrs by sulforhodamine B assay; format: functional
MCF7 = assay: Growth inhibition of human MCF7 cells after 48 hrs by sulforhodamine B assay; format: functional; conditions: MCF7, 48 h
NCI-H460 = assay: Growth inhibition of human NCI-H460 cells after 48 hrs by sulforhodamine B assay; format: functional; conditions: NCI-H460, 48 h
COLO 205 = assay: Growth inhibition of human COLO205 cells after 48 hrs by sulforhodamine B assay; format: functional; conditions: COLO 205, 48 h
A498 = assay: Growth inhibition of human A498 cells after 48 hrs by sulforhodamine B assay; format: functional; conditions: A498, 48 h
U-251 = assay: Growth inhibition of human U251 cells after 48 hrs by sulforhodamine B assay; format: functional; conditions: U-251, 48 h
OVCAR-5 = assay: Growth inhibition of human OVCAR5 cells after 48 hrs by sulforhodamine B assay; format: functional; conditions: OVCAR-5, 48 h
CAKI-1 = assay: Growth inhibition of human Caki1 cells after 48 hrs by sulforhodamine B assay; format: functional; conditions: CAKI-1, 48 h
MDA-MB-435 = assay: Growth inhibition of human MDA-MB-435 cells after 48 hrs by sulforhodamine B assay; format: functional; conditions: MDA-MB-435, 48 h
SF-295 = assay: Growth inhibition of human SF295 cells after 48 hrs by sulforhodamine B assay; format: functional; conditions: SF-295, 48 h
SK-MEL-28 = assay: Growth inhibition of human SK-MEL-28 cells after 48 hrs by sulforhodamine B assay; format: functional; conditions: SK-MEL-28, 48 h
[6] = Growth inhibition of human […] cells after 48 hrs by sulforhodamine B assay; format: functional
CCRF-CEM = assay: Growth inhibition of human CCRF-CEM cells after 48 hrs by sulforhodamine B assay; format: functional
KM12 = assay: Growth inhibition of human KM12 cells after 48 hrs by sulforhodamine B assay; format: functional; conditions: KM12, 48 h
SR = assay: Growth inhibition of human SR cells after 48 hrs by sulforhodamine B assay; format: functional
TK-10 = assay: Growth inhibition of human TK10 cells after 48 hrs by sulforhodamine B assay; format: functional; conditions: TK-10, 48 h
HCT-15 = assay: Growth inhibition of human HCT15 cells after 48 hrs by sulforhodamine B assay; format: functional; conditions: HCT-15, 48 h
RXF 393 = assay: Growth inhibition of human RXF393 cells after 48 hrs by sulforhodamine B assay; format: functional; conditions: RXF 393, 48 h
BT-549 = assay: Growth inhibition of human BT549 cells after 48 hrs by sulforhodamine B assay; format: functional; conditions: BT-549, 48 h
UACC-257 = assay: Growth inhibition of human UACC257 cells after 48 hrs by sulforhodamine B assay; format: functional; conditions: UACC-257, 48 h
IGROV-1 = assay: Growth inhibition of human IGROV1 cells after 48 hrs by sulforhodamine B assay; format: functional; conditions: IGROV-1, 48 h
OVCAR-3 = assay: Growth inhibition of human OVCAR-3 cells after 48 hrs by sulforhodamine B assay; format: functional; conditions: OVCAR-3, 48 h
[7] = Selectivity index, ratio of TC50 for african green monkey (Cercopithecus aethiops) Vero cells to IC50 for chloroquine-resistant Plasmodium falciparum W2; format: toxicity, cell-based
Malme-3M = assay: Growth inhibition of human MALME-3M cells after 48 hrs by sulforhodamine B assay; format: functional
HUVEC [8] = assay: Antiangiogenic activity against HUVEC assessed as inhibition of capillary-like structure formation by NCI antiangiogenesis assay; format: functional, cell-based; conditions: Homo sapiens
HUVEC [9] = assay: Antiangiogenic activity against HUVEC assessed as inhibition of VEGF-induced cell migration by NCI antiangiogenesis assay; format: functional, cell-based; conditions: Homo sapiens
HUVEC [10] = assay: Antiangiogenic activity against HUVEC assessed as growth inhibition by NCI antiangiogenesis assay; format: functional, cell-based; conditions: Homo sapiens

Work on `C=C1[C@@H](OCCCO[C@H]2O[C@@H]3O[C@@]4(C)CC[C@H]5[C@H](C)CC[C@@H](C2=C)[C@@]35OO4)O[C@@H]2O[C@@]3(C)CC[C@H]4[C@H](C)CC[C@@H]1[C@@]24OO3` yielded a GI50 (SK-OV-3) of 10900 nM, a GI50 (EKVX) of 476 nM and a GI50 [1] of 74 nM. For the same compound, the GI50 (OVCAR-8) was 372 nM, the GI50 (HOP-62) was 6880 nM and the GI50 (SK-MEL-5) was 496 nM. The GI50 (DU-145) was 7590 nM, the GI50 (OVCAR-4) was 73 nM and the GI50 (UACC-62) was 7200 nM. It also gave a GI50 (SN12C) of 7300 nM, an IC50 (Plasmodium falciparum [2]) of 5100 nM and a GI50 (SW-620) of 62 nM. The GI50 (HL-60) was 98 nM, the GI50 (NCI-H522) was 401 nM and the GI50 (A549) was 5330 nM. For the same compound, the GI50 (SF-539) was 5340 nM, the GI50 (K562) was 50 nM and the GI50 (PC-3) was 63 nM. For the same compound, the GI50 (HT-29) was 43 nM, the GI50 (NCI-H23) was 1070 nM and the IC50 (Plasmodium falciparum [3]) was 18600 nM. It also gave a GI50 (HOP-92) of 745 nM, a GI50 (MDA-MB-231) of 13100 nM and a CC50 at 48 h [4] of over 806000 nM. It also gave a GI50 (M14) of 205 nM, a GI50 (NCI-H322M) of 11200 nM and a GI50 (HCC 2998) of 5980 nM. The GI50 (SK-MEL-2) was 3140 nM, the GI50 (SF-268) was 6290 nM and the GI50 (MDA-N) was 518 nM. The GI50 (786-0) was 346 nM, the selectivity ratio [5] was over 43 and the GI50 (T47D) was 14 nM. For the same compound, the GI50 (HCT-116) was 27 nM, the GI50 (NCI/ADR-RES) was 533 nM and the GI50 (UO-31) was 181 nM. The GI50 (MOLT-4) was 121 nM, the GI50 (SNB-19) was 11100 nM and the GI50 (ACHN) was 6380 nM. For the same compound, the GI50 (MCF7) was 150 nM, the GI50 (NCI-H460) was 5440 nM and the GI50 (COLO 205) was 122 nM. For the same compound, the GI50 (A498) was over 50000 nM, the GI50 (U-251) was 288 nM and the GI50 (OVCAR-5) was 5040 nM. For the same compound, the GI50 (CAKI-1) was 1770 nM, the GI50 (MDA-MB-435) was 443 nM and the GI50 (SF-295) was 7650 nM. The GI50 (SK-MEL-28) was 6070 nM, the GI50 [6] was 13 nM and the GI50 (CCRF-CEM) was 97 nM. The GI50 (KM12) was 94 nM, the GI50 (SR) was 28 nM and the GI50 (TK-10) was 218 nM. The GI50 (HCT-15) was 12 nM, the GI50 (RXF 393) was 6460 nM and the GI50 (BT-549) was 7520 nM. It also gave a GI50 (UACC-257) of 479 nM, a GI50 (IGROV-1) of 622 nM and a GI50 (OVCAR-3) of 107 nM. It also gave a selectivity ratio [7] of over 159 and a GI50 (Malme-3M) of 7280 nM.
Work on `CO[C@@H]1[C@H](OC(=O)NC(=O)CCl)CC[C@]2(CO2)[C@H]1[C@@]1(C)O[C@@H]1CC=C(C)C` [O-CHLOROACETYLCARBAMOYLFUMAGILLOL] yielded an IC50 (HUVEC [8]) of 1000 nM, an IC50 (HUVEC [9]) of 500 nM and an IC50 (HUVEC [10]) of 3160 nM.
In the case of `CC(=O)O[C@H]1C(=O)[C@@]2(C)[C@H]([C@H](OC(=O)c3ccccc3)[C@]3(O)C[C@H](OC(=O)[C@H](O)[C@@H](NC(=O)c4ccccc4)c4ccccc4)C(C)=C1C3(C)C)[C@]1(OC(C)=O)CO[C@@H]1C[C@@H]2O` [PACLITAXEL], the IC50 (HUVEC [8]) is reported as 50 nM, the IC50 (HUVEC [9]) is reported as 100 nM and the IC50 (HUVEC [10]) is reported as 1650 nM.
